Test results: publication PMC11249646, “Small-Molecule Disruptors of the Interaction between Calcium- and Integrin-Binding Protein 1 and Integrin αIIbβ3 as Novel Antiplatelet Agents” (ACS Pharmacology & Translational Science, 2024)
Where two headings read alike, the source gives them in different places.

Target: T1, CIB1 and αIIb interaction (CIB1-GST : F-αIIb peptide) (Homo sapiens, UniProt Q99828)
T1 construct: made in house; host or cells: BL-21 plus RIL cells (E. coli)
T1 sequence (Q99828 1-191): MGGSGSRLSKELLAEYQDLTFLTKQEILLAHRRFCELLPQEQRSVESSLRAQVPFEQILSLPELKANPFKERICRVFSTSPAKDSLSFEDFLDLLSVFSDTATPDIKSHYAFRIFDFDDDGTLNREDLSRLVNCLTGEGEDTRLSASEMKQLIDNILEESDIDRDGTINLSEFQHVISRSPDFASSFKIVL
Test: FP assay, 1536-well qHTS format (primary and confirmatory screen)
Type: binding

[1] = qHTS primary screen hits, Table S2, negative = inhibition
[2] = qHTS primary screen hits, Table S2, negative sign = inhibitory curve
[3] = qHTS primary screen hits, Table S2, read-out: IC50
[4] = qHTS primary screen hits, Table S2, negative sign = inhibitory curve, several classes where COUNT > 1
[5] = qHTS FP screen hits, Table S2, negative = inhibition
[6] = qHTS FP screen hits, Table S2, read-out: IC50
[7] = qHTS primary screen of LOPAC/NPACT libraries, negative = inhibition
[8] = qHTS primary screen of LOPAC/NPACT libraries, negative sign = inhibitory curve
[9] = qHTS primary screen of LOPAC/NPACT libraries, read-out: IC50

Efficacy (%) [1] | IC50 [3] | Efficacy (%) [7] | Curve Class [8] | IC50 [9] | SMILES | also measured
-41% | 44.7 µM |  |  |  | CCCCC1(C2CCCC2)Cc2cc(OCC(=O)O)c(Cl)c(Cl)c2C1=O (stereo in doubt) [NCGC00093872-03] | Curve Class [2]: -2.2
 |  | -25% | -2.2 | 56.2 µM | COc1cc(NS(C)(=O)=O)ccc1Nc1c2ccccc2nc2ccccc12.Cl [NCGC00015113-03] | 
 |  | -16% | -2.4 | 79.4 µM | O=[N+]([O-])c1cccc2c(Br)n[nH]c12 [NCGC00015143-10] | 
-50% | 50.1 µM |  |  |  | Cl.Cl.NC(CO)C(=O)NNCc1ccc(O)c(O)c1O (centres unmarked) [NCGC00015163-09] | Curve Class [4]: -2.2
-48% | 35.5 µM |  |  |  | N#Cc1cc2nc([O-])c([O-])nc2cc1[N+](=O)[O-].[Na+].[Na+] [NCGC00015198-04] | Curve Class [2]: -2.2
-44% | 39.8 µM |  |  |  | COc1ccc2c(c1)c(CC(=O)O)c(C)n2Cc1ccc(Cl)cc1 [NCGC00015217-05] | Curve Class [2]: -2.2
 |  | -14% | -2.4 | 20 µM | Clc1ccccc1C(c1ccccc1)(c1ccccc1)n1ccnc1 [NCGC00015251-09] | 
-48% | 31.6 µM |  |  |  | O=c1[nH]c2cc([N+](=O)[O-])c([N+](=O)[O-])cc2[nH]c1=O [NCGC00015319-06] | Curve Class [2]: -2.2
 |  | -13% | -2.4 | 70.8 µM | O=c1ccc2ccc(O)c(O)c2o1 [NCGC00015349-05] | 
-110% | 100 µM |  |  |  | CCCCCCCCCCCCCCC[C@H](O)[C@@H](N)CO [NCGC00015362-05] | Curve Class [4]: -2.3
 |  | -37% | -2.2 | 31.6 µM | O=c1oc(Cl)c(Cl)c2ccccc12 [NCGC00015369-06] | 
 |  | -30% | -2.4 | 56.2 µM | CCCCCCCCCCC/C=C\C(C)(C)/C=C\CCCC(=O)O [NCGC00015371-07] | 
-32% | 70.8 µM |  |  |  | CNC[C@H](O)c1ccc(O)c(O)c1 [NCGC00015417-04] | Curve Class [2]: -2.4
 |  | -26% | -2.2 | 50.1 µM | CCOC(=O)C1=C(C)NC(C)=C(C(=O)OC)C1c1cccc(Cl)c1Cl (centres unmarked) [NCGC00015455-08] | 
 |  | -14% | -2.4 | 31.6 µM | COc1ccc(Cl)cc1C(=O)NCCc1ccc(S(=O)(=O)NC(=O)NC2CCCCC2)cc1 [NCGC00015467-16] | 
 |  | -28% | -2.4 | 56.2 µM | CN(C)c1cc2c(Nc3ccc4c(cnn4Cc4ccccc4)c3)ncnc2cn1 [NCGC00015468-06] | 
 |  | -19% | -2.2 | 17.8 µM | COc1ccc(NC(=O)c2ccc(-c3ccc(-c4noc(C)n4)cc3C)cc2)cc1N1CCN(C)CC1.Cl [NCGC00015476-05] | 
 |  | -28% | -1.4 | 12.6 µM | CC(C)(Sc1ccc(CCN(CCCCC2CCCCC2)C(=O)NC2CCCCC2)cc1)C(=O)O [NCGC00015480-08] | 
 |  | -18% | -1.2 | 3.5 µM | O=C1Nc2ccccc2/C1=C1/Nc2ccccc2/C1=N\O [NCGC00015545-07] | 
-18% | 50.1 µM |  |  |  | O=C1NC(c2cccc([N+](=O)[O-])c2)=CCN1c1ccccc1O [NCGC00015571-05] | Curve Class [4]: -2.2

Further lines, the compound ahead of its results:

SMILES | Efficacy (%) [1] | IC50 [3] | Efficacy (%) [7] | Curve Class [8] | IC50 [9] | also measured
CN1CCN(c2ncc3nc(-c4cn(C)c5ccccc45)c(=O)n(Cc4cccs4)c3n2)CC1.O=C(O)C(F)(F)F [NCGC00012779-02] | -27% | 50.1 µM |  |  |  | Curve Class [4]: -2.4
CN(C)c1ccc(C(=C2C=CC(=[N+](C)C)C=C2)c2ccccc2)cc1.CN(C)c1ccc(C(=C2C=CC(=[N+](C)C)C=C2)c2ccccc2)cc1.O=C(O)C(=O)O.O=C([O-])C(=O)O.O=C([O-])C(=O)O [NCGC00013058-02] | -53% | 100 µM |  |  |  | Curve Class [4]: -3
O=S1(=O)OC(c2ccc(O)cc2)(c2ccc(O)cc2)c2ccccc21 [NCGC00013109-03] | -72% | 44.7 µM |  |  |  | Curve Class [2]: -2.4
Oc1ccc(Cl)cc1Sc1cc(Cl)ccc1O [NCGC00013679-06] | -30% | 50.1 µM |  |  |  | Curve Class [4]: -2.4
CCc1oc2ccccc2c1C(=O)c1cc(Br)c(O)c(Br)c1 [NCGC00013895-18] |  |  |  |  |  | Efficacy (%) [5]: -51%; Curve Class (qHTS FP screen hits, Table S2, one class per curve where COUNT > 1, negative sign = inhibitory curve): -2.2; IC50 [6]: 34.9 µM
O=S(=O)(O)c1ccc2cc(/N=N/c3cc(S(=O)(=O)O)c4cccnc4c3O)ccc2c1 [NCGC00013917-09] | -57% | 14.3 µM |  |  |  | 
O=C(O)CCc1nc(-c2ccccc2)c(-c2ccccc2)o1 [NCGC00014711-11] |  |  | -11% | -2.4 | 89.1 µM | 
CC[C@@]1(O)C(=O)OCc2c1cc1n(c2=O)Cc2cc3c(CN(C)C)c(O)ccc3nc2-1 [NCGC00014925-07] | -147% | 24.5 µM |  |  |  | 
Cn1c(=O)c2[nH]c(-c3ccc(S(=O)(=O)O)cc3)nc2n(C)c1=O [NCGC00015000-05] |  |  | -28% | -2.2 | 50.1 µM | 
C=CCn1c(=O)c2c(nc(-c3ccc(S(=O)(=O)O)cc3)n2C)n(C)c1=O [NCGC00015008-05] |  |  | -20% | -2.2 | 25.1 µM | 
NC1(C(=O)O)CCc2cc(C(=O)O)ccc21 (centres unmarked) [NCGC00015024-06] |  |  | -25% | -2.2 | 56.2 µM | 
Nc1ccc2c3c(cccc13)C(=O)NC2=O [NCGC00015035-07] | -70% | 2.5 µM |  |  |  | Curve Class [2]: -1.2
Nc1nc(N)c2nc(CNc3ccc(C(=O)NC(CCC(=O)O)C(=O)O)cc3)cnc2n1 (centres unmarked) [NCGC00015038-09] | -49% | 39.8 µM |  |  |  | Curve Class [2]: -2.2
CCN1CCc2nc(N)oc2CC1.Cl [NCGC00015131-04] |  |  | -13% | -2.4 | 39.8 µM | 
C[N+](C)(C)CC(=O)O.[Cl-] [NCGC00015150-04] | -24% | 56.2 µM |  |  |  | Curve Class [4]: -2.4
CN1CCN(c2nc3cc(C(F)(F)F)ccc3n3cccc23)CC1.O=C(O)/C=C\C(=O)O [NCGC00015180-05] | -17% | 44.7 µM |  |  |  | Curve Class [4]: -2.2
COc1ccc2c(c[n+](C)c3c4cc5c(cc4ccc23)OCO5)c1OC [NCGC00015225-07] |  |  |  |  |  | Efficacy (%) [5]: -30%; IC50 [6]: 24.6 µM
CN(N=O)c1cc(O)ccc1O [NCGC00015372-04] | -50% | 50.1 µM |  |  |  | Curve Class [2]: -2.2
Cc1cc(O)c2c(c1)C(=O)c1cc(O)cc(O)c1C2=O [NCGC00015420-08] | -31% | 10 µM |  |  |  | Curve Class [2]: -1.2
CCOC(=O)Nc1ccc(NCc2ccc(F)cc2)nc1N.O=C(O)/C=C\C(=O)O [NCGC00015451-04] |  |  | -53% |  | 39.8 µM | 
NC(Cc1cc(O)c(O)cc1O)C(=O)O (centres unmarked) [NCGC00015503-06] |  |  |  |  |  | Curve Class: -2.1; Efficacy (%): -97%; IC50 (IC50 [μM]): 35.5 µM
